In patent US20210355106A1, “NEW AMINO-PYRIMIDONYL-PIPERIDINYL DERIVATIVES, A PROCESS FOR THEIR PREPARATION AND PHARMACEUTICAL COMPOSITIONS CONTAINING THEM” (LES LABORATOIRES SERVIER, priority 2018, published 2021):

What was measured:
USP7 = target: T1, USP7 (Homo sapiens, UniProt Q93009, C315A); assay: Inhibition of USP7 by Fluorescence Intensity (FLINT) readings, Ubiquitin-Rhodamine-110 substrate; format: biochemical; conditions: 0.25 nM His-His-USP7 (aa208-560), 60 minutes at 30° C. preincubation; Ki determined from IC50 according to Cer et al.
T1 construct: 0.25 nM His-His-USP7 (aa208-560, |C315A|) was incubated with compound; His-His (N)
Outline: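 Kinetic rate of Rhodamine-110 release from ubiquitin substrate (50 nM or 4 μM), read every 3 min for 21 min, after 60 min, 30 °C preincubation of 0.25 nM USP7 catalytic domain C315A with compound. Bicine pH 8.0 buffer, 10% DMSO; 11-point IC50 vs DMSO and no-enzyme controls, converted to Ki.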

[1] = tested on: Z138 mantle cell lymphoma tumour cell lines; assay: In vitro cytotoxicity, MTT assay; format: cell-based; conditions: Z138 cells, exposed to the test compounds for 96 hours
Procedure: The cytotoxicity studies were evaluated by MTT [3-(4,5-dimethylthiaxol-2-yl)-2,5-diphenyltetrazolium bromide|assay and carried out on Z138 mantle cell lymphoma tumour cell lines. The cells are distributed onto microplates and exposed to the test compounds for 96 hours. MTT is then added for 4 hours and converted by NAD(P)H-dependent cellular oxidoreductase enzymes in forma/an, which has a purple color. The viable cell number is proportional to the production of formazan salts and cell viability can be quantified by the absorbance of the solution at 540 nm with a spectrophotometer (Carmichael et al., Cancer Res. 1987, 47, 936-942).

T1 sequence (Q93009 208-560 C315A): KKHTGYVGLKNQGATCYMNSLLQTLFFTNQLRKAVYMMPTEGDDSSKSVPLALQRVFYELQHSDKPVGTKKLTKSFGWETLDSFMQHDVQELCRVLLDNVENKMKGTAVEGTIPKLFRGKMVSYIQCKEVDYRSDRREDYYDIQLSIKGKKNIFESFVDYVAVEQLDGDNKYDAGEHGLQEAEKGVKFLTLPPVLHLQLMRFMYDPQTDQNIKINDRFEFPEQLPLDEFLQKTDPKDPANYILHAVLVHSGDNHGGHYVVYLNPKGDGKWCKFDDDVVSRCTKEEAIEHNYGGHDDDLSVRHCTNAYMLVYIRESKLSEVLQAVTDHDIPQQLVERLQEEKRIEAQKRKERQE

| Compound | Ki (USP7) | IC50 ([1]; Homo sapiens, Z-138) | IC50 [1] |
| --- | --- | --- | --- |
| Cc1ccc(-c2nc(C)c(C(=O)N3CC[C@@H](C(=O)N4CCC(O)(Cn5cnc(Oc6cccc(OC(F)(F)F)c6)c(N)c5=O)CC4)[C@H](c4ccccc4)C3)s2)cn1 [Example 27, 5-amino-3-[(4-hydroxy-1-((3R,4R)-1-[4-methyl-2-(6-methylpyridin-3-yl)-1,3-thiazole-5-carbonyl]-3-phenylpiperidine-4carbonyl}piperidin-4-yl)methyl]-6-[3-(trifluoromethoxy)phenoxy]pyrimidin-4(3H)-one] | 8.8 nM | 17 nM |  |
| 5-amino-3-[(3SR,4SR)-3-fluoro-4-hydroxy-1-(3R,4R)-1-[4-methyl-2-(6-methyl-3-pyridyl)thiazole-5-carbonyl]-3-phenyl-piperidine-4-carbonyl]-4-piperidyl]methyl]-6-(4-fluorophenoxy)pyrimidin-4-one and 5-amino-3-[[(3RS,4RS)-3-fluoro-4-hydroxy-1-[(3R,4R)-1-[4-methyl-2-(6-methyl-3-pyridyl)thiazole-5-carbonyl]-3-phenyl-piperidine-4-carbonyl]-4-piperidyl]methyl]-6-(4-fluorophenoxy)pyrimidin-4-one [Example 198] | 10.7 nM |  | 3.14 nM |
| Cc1cnc(CN2CC[C@@H](C(=O)N3CC[C@](O)(Cn4cnc(Oc5cccc(C(F)(F)F)c5)c(N)c4=O)C(F)(F)C3)[C@H](c3ccccc3)C2)cn1 [Example 144, 5-amino-3-{[(4S)-3,3-difluoro-4-hydroxy-1-[(3R,4R)-1-((5-methylpyrazin-2-yl)methyl]-3-phenyl-piperidine-4-carbonyl]-4-piperidyl]methyl]-6-[3-(trifluoromethyl)phenoxy]pyrimidin-4-one] | 22 nM | 80.2 nM |  |
| COc1ccc(NC(=O)N2CC[C@@H](C(=O)N3CCC(O)(Cn4cnc(Oc5ccc(F)cc5)c(N)c4=O)CC3)[C@H](c3ccccc3)C2)cc1 [Example 80] | 19 nM | 6.2 nM |  |
| Nc1c(Oc2ccc(F)cc2)ncn(CC2(O)CCN(C(=O)[C@@H]3CCN(C(=O)c4sc(I)cc4F)C[C@H]3c3ccccc3)CC2)c1=O [Example 39, 5-amino-3-({1-[(3R,4R)-1-(3-fluoro-5-iodothiophene-2-carbonyl)-3-phenylpiperidine-4-carbonyl]-4-hydroxypiperidin-4-yl}methyl)-6-(4-fluorophenoxy)pyrimidin-4(3H)-one] | 8.2 nM | 13 nM |  |
| COc1cc(Oc2ncn(CC3(O)CCN(C(=O)[C@@H]4CCN(C(=O)c5sc(-c6ccc(C)nc6)nc5C)C[C@H]4c4ccccc4)CC3)c(=O)c2N)ccc1F [Example 25] | 2.9 nM | 2.3 nM |  |
| Cc1ncc(C(=O)N2CC[C@@H](C(=O)N3CCC(O)(Cn4cnc(Oc5ccc(F)cc5)c(N)c4=O)CC3)[C@H](c3ccccc3)C2)s1 [Example 49] | 24.9 nM | 31 nM |  |
| Cc1nc(Br)sc1C(=O)N1CC[C@@H](C(=O)N2CC[C@](O)(Cn3cnc(Oc4ccc(F)cc4)c(N)c3=O)C(F)(F)C2)[C@H](c2ccccc2)C1 [Example 41, 5-amino-3-(((4S)-1-[(3R,4R)-1-(2-bromo-4-methyl-1,3-thiazole-5-carbonyl)-3-phenylpiperidine-4-carbonyl]-3,3-difluoro-4-hydroxypiperidin-4-yl}methyl)-6-(4-fluorophenoxy)pyrimidin-4(3H)-one] | 6.7 nM | 2.5 nM |  |
| Cc1ccc(-c2cc(F)c(C(=O)N3CC[C@@H](C(=O)N4CCC(O)(Cn5cnc(Oc6cccc(C(F)(F)F)c6)c(N)c5=O)CC4)[C@H](c4ccccc4)C3)s2)cn1 [Example 101, 5-amino-3-[[1-[(3R,4R)-1-[3-fluoro-5-(46-methyl-3-pyridyl)thiophene-2-carbonyl]-3-phenyl-piperidine-4-carbonyl]-4-hydroxy-4-piperidyl]methyl]-6-[3-(trifluoromethyl)phenoxy]pyrimidin-4-one] | 11 nM | 25.3 nM |  |
| Nc1c(Oc2ccc(F)cc2)ncn(CC2(O)CCN(C(=O)[C@@H]3CCN(C(=O)c4cc(F)cc(F)c4)C[C@H]3c3ccccc3)CC2)c1=O [Example 129, 5-amino-3-[[1-[(3R,4R)-1-(3,5-difluorobenzoyl)-3-phenyl-piperidine-4-carbonyl]-4-hydroxy-4-piperidyl]methyl]-6-(4-fluorophenoxy)pyrimidin-4-one] | 2.87 nM | 5.2 nM |  |
| Cc1cc(C)nc(CN2CC[C@@H](C(=O)N3CC[C@](O)(Cn4cnc(Oc5ccc(F)cc5)c(N)c4=O)C(F)(F)C3)[C@H](c3ccccc3)C2)n1 [Example 206, 5-amino-3-[[(4S)-1-[(3R,4R)-1-[(4,6-dimethylpyrimidin-2-yl)methyl]-3-phenyl-piperidine-4-carbonyl]-3,3-difluoro-4-hydroxy-4-piperidyl]methyl]-6(4-fluorophenoxy)pyrimidin-4-one] | 37.2 nM | 20.5 nM |  |
| Nc1c(Oc2ccc(F)cc2)ncn(CC2(O)CCN(C(=O)[C@@H]3CCN(C(=O)Nc4ccccc4F)C[C@H]3c3ccccc3)CC2)c1=O [Example 89] | 20 nM | 26 nM |  |
| Cc1nc(-c2ccc(F)cc2)sc1C(=O)N1CC[C@@H](C(=O)N2CCC(O)(Cn3cnc(Oc4ccc(F)cc4)c(N)c3=O)CC2)[C@H](c2ccccc2)C1 [Example 48, 5-amino-6-(4-fluorophenoxy)-3-[(1-((3R,4R)-1-[2-(4-fluorophenyl)-4-methyl-1,3-thiazole-5-carbonyl]-3-phenylpiperidine-4-carbonyl}-4-hydroxypiperidin-4-yl)methyl]pyrimidin-4(3H)-one] | 5.2 nM | 3 nM |  |
| Nc1c(Oc2ccc(F)cc2)ncn(CC2(O)CCN(C(=O)[C@@H]3CCN(C(=O)C(F)(F)c4ccccc4)C[C@H]3c3ccccc3)CC2)c1=O [Example 75, 5-amino-3-[[1-[(3R,4R)-1-(2,2-difluoro-2-phenyl-acetyl)-3-phenyl-piperidine-4-carbonyl]-4-hydroxy-4-piperidyl]methyl]-6-(4-fluorophenoxy)pyrimidin-4-one] | 39 nM | 43 nM |  |
| Cc1nc(-c2ccc(C(F)(F)F)nc2)sc1C(=O)N1CC[C@@H](C(=O)N2CCC(O)(Cn3cnc(Oc4ccc(F)cc4)c(N)c3=O)CC2)[C@H](c2ccccc2)C1 [Example 42, 5-amino-6-(4-fluorophenoxy)-3-({4-hydroxy-1-{(3R,4R)-1-{4-methyl-2-[6-(trifluromethyl)pyridin-3-yl]-1,3-thiazole-5carbonyl)-3-phenylpiperidine-4-carbonyl]piperidin-4-yl}methyl)pyrimidin-4(3H)-one] | 4.1 nM |  | 3.66 nM |
| Nc1c(Oc2ccc(F)cc2)ncn(CC2(O)CCN(C(=O)[C@@H]3CCN(C(=O)Nc4nccs4)C[C@H]3c3ccccc3)CC2)c1=O [Example 86, (3R,4R)-4-[4-[[5-amino-4-(4-fluorophenoxy)-6-oxo-pyrimidin-1-yl]methyl]-4-hydroxy-piperidine-1-carbonyl]-3-phenyl-N-thiazol-2-yl-piperidine-1-carboxamide] | 58 nM | 838 nM |  |
| Cc1ccc(-c2nc(C)c(C(=O)N3CC[C@@H](C(=O)N4CCC(O)(Cn5cnc(Oc6ccc(Cl)c(F)c6)c(N)c5=O)CC4)[C@H](c4ccccc4)C3)s2)cn1 [Example 24, 5-amino-6-(4-chloro-3-fluorophenoxy)-3-[(4-hydroxy-1-{(3R,4R)-1-[4-methy-2-(6-methylpyridin-3-yl)-1,3-thiazole-5-carbonyl]-3-phenylpiperidine-4-carbonyl}piperidin-4-yl)methyl]pyrimidin-4(3H)-one] | 4 nM | 9.9 nM |  |
| Cc1ccc(-c2cc(F)c(C(=O)N3CC[C@@H](C(=O)N4CCC(O)(Cn5cnc(Oc6ccc(F)cc6)c(N)c5=O)CC4)[C@H](c4ccccc4)C3)s2)cn1 [Example 40] | 4.19 nM | 1.7 nM |  |
| COc1cc(Oc2ncn(C[C@@]3(O)CCN(C(=O)[C@@H]4CCN(Cc5cnccn5)C[C@H]4c4ccccc4)CC3(F)F)c(=O)c2N)ccc1F [Example 213, 5-amino-3-[[(4S)-3,3-difluoro-4-hydroxy-1-[(3R,4R)-3-phenyl-1-(pyrazin-2-ylmethyl)piperidine-4-carbonyl]-4-piperidyl]methyl]-6-(4-fluoro-3-methoxy-phenoxy)pyrimidin-4-one] | 36.4 nM | 15.6 nM |  |
| COc1cc(Oc2ncn(C[C@@]3(O)CCN(C(=O)[C@@H]4CCN(Cc5nccnc5C)C[C@H]4c4ccccc4)CC3(F)F)c(=O)c2N)ccc1F [Example 219, 5-amino-3-[[(4S)-3,3-difluoro-4-hydroxy-1-[(3R,4R)-1-[(3-methylpyrazin-2-yl)methyl]-3-phenyl-piperidine-4-carbonyl]-4-piperidyl]methyl]-6-(4-fluoro-3-methoxy-phenoxy)pyrimidin-4-one] | 30.3 nM | 23.4 nM |  |
| COc1cc(Oc2ncn(C[C@@]3(O)CCN(C(=O)[C@@H]4CCN(C(=O)c5sc(-c6ccc(C)nc6)nc5C)C[C@H]4c4ccccc4)CC3(F)F)c(=O)c2N)ccc1F [Example 179] | 5.58 nM | 1.34 nM |  |
| Cc1cc(Cl)cc(C(=O)N2CC[C@@H](C(=O)N3CCC(O)(Cn4cnc(Oc5ccc(F)cc5)c(N)c4=O)CC3)[C@H](c3ccccc3)C2)c1 [Example 162] | 12.7 nM | 3.72 nM |  |
